Tested on: ear swelling
Settings: conventional form, 200 mg dose (highest dosage used), topical, after 6 hours of exposure, croton oil
Source text: Croton oil was applied to the left and right ears of five animals to cause inflammation. Two hours later, a nanoparticle preparation of Celebrex or conventional form of Celebrex® was applied topically to the left or right ear.

Compound: Cc1ccc(-c2cc(C(F)(F)F)nn2-c2ccc(S(N)(=O)=O)cc2)cc1 [Celebrex® delivered in conventional form]
- reduction in ear swelling: 60%

Source: patent US7763663B2, “Polysaccharide-containing block copolymer particles and uses thereof” (priority 2001, dated 2010)
